# Measured values: article PMC4226674, “A phase I trial of the HIV protease inhibitor nelfinavir in adults with solid tumors” (Oncotarget, 2014)
# Read-outs that look alike come from different tables or passages of the source.
# Columns and labels:
# [1] = Method: This single institution, open-label, Phase Ia dose escalation study was performed to establish the MTD and DLT of nelfinavir in subjects with advanced refractory solid tumors. The study used a modified Fibonacci scheme, in which cohorts of three to six subjects were entered at each dose level until two patients developed DLT. If two or more subjects encountered DLT, then the MTD was exceeded. The MTD was defined as the dose level at which less than 2 of 6 subjects experienced DLT. Each cycle lasted 21 days. Up to 6 additional patients were allowed to be enrolled at the MTD in order to better establish potential rates of toxicity.
# Physical examinations, toxicity assessments and laboratory analyses were conducted weekly during cycle 1 and then every three weeks beginning cycle 2.
# The starting dose of nelfinavir was the FDA-approved dose in HIV patients of 1250 mg twice daily, which comprised dose level (DL) 1. Dose escalation proceeded in 625 mg, twice-daily increments (DL2: 1875 mg, DL3: 2500 mg, DL4: 3125 mg, DL5: 3750 mg, DL6: 4375 mg).
# Toxicity was graded according to the National Cancer Institute Common Toxicity Criteria, version 3.0.
# [2] = Nelfinavir plasma pharmacokinetics (HPLC-MS, noncompartmental); format: in vivo, human
# Method: To determine CYP3A4 phenotype, a single 3 mg oral dose of midazolam hydrochloride, a CYP3A4 substrate, was administered at day -2 (2 days prior to commencing nelfinavir) and again at steady state (cycle 1 day 20). Serial venous blood samples were collected at 15, 30, 60, 120, 180, 240, and 300 minutes following administration of midazolam. Nelfinavir pharmacokinetics (PK) were obtained after single dose administration, cycle 1 day 1, and again at steady state, cycle 2 day 1. Serial venous blood samples were collected pre-dose and at 1, 2, 3, 4, 5, 6 and 12 hours after administration. Plasma concentrations of midazolam and nelfinavir were determined with a validated assay employing high performance liquid chromatography (HPLC) with mass spectrometric detection. Noncompartmental pharmacokinetic analyses were performed with WinNonlin 5.2 (Pharsight). Individual concentration-time profiles were constructed for each patient, course and drug resulting in four profiles per patient (two each for midazolam and nelfinavir). The maximum plasma concentration (Cmax) and the time of maximum plasma concentration (Tmax) were the observed values. Drug exposure was estimated using the area under the concentration-time curve (AUC). The area under the concentration-time curve (AUC) from time zero to the time of the final quantifiable sample (AUClast) was calculated using the linear trapezoidal method. The area under the concentration-time curve from time zero to infinity (AUCinf) was calculated by extrapolation, using the terminal rate constant from the last measurable concentration.
# P-AKT S473 = assay: Akt activation in PBMCs by immunoblotting; format: in vivo, human
# Method: Blood was collected in Vacutainer CPT collection tubes with sodium heparin (BD Biosciences cat# 362753) and mononuclear cells were isolated as per the manufacturer's instructions. PBMCs were washed with PBS and lysed in 2X LSB buffer, aliquotted and stored at -80°C. For analysis, equal amounts of protein per sample were run on 10-12% SDS-PAGE gels, then transferred onto nitrocellulose membranes. Membranes were blocked in 5% milk in TBS + 0.1% tween (TBST) and incubated with primary antibody diluted in 5% BSA in TBST at 4 degrees overnight. The next day membranes were washed, incubated with HRP-linked secondary antibody and developed using ECL chemiluminescent reagent (GE Healthcare) and X-ray film as per the manufacturers instructions. […] Antibodies to CHOP sc-7351 and ATF3 sc-188 were from Santa Cruz Biotechnology (Santa Cruz, CA).
# P-EIF2 alpha S51 = assay: ER stress marker P-EIF2 alpha in PBMCs by immunoblotting; format: in vivo, human; conditions: DL4 (3125 mg bid), after 7 or 42 days; printed as 'the same percentage'
# Method: (§1) Peripheral blood mononuclear cells (PBMCs) were collected at baseline, and then twice after starting nelfinavir: cycle 1 day 7 and cycle 1 day 42. Levels of P-AKT S473, P-EIF2 alpha S51, ATF3 and CHOP in PBMCs before and after nelfinavir were analyzed by immunoblotting. Blood was collected in Vacutainer CPT collection tubes with sodium heparin (BD Biosciences cat# 362753) and mononuclear cells were isolated as per the manufacturer's instructions. PBMCs were washed with PBS and lysed in 2X LSB buffer [33], aliquotted and stored at -80°C. For analysis, equal amounts of protein per sample were run on 10-12% SDS-PAGE gels, then transferred onto nitrocellulose membranes. Membranes were blocked in 5% milk in TBS + 0.1% tween (TBST) and incubated with primary antibody diluted in 5% BSA in TBST at 4 degrees overnight. The next day membranes were washed, incubated with HRP-linked secondary antibody and developed using ECL chemiluminescent reagent (GE Healthcare) and X-ray film as per the manufacturers instructions. The amount of P-AKT S473, P-EIF2 alpha S51, ATF3 or CHOP in the PBMCs at C1D7 and C1D42 were compared against a baseline sample for each patient, (prior to receiving nelfinavir). Antibodies against P-AKT S473 #4060, P-EIF2 alpha S51 #3398 and β-Actin #4970 were from Cell Signaling Technology (Danvers, MA). […]
# ATF3 and/or CHOP = assay: ER stress markers ATF3/CHOP in PBMCs by immunoblotting; format: in vivo, human; conditions: DL4 (3125 mg bid)
# Method: as §1
# liposarcoma = conditions: cited from earlier work
# [3] = Cycle 2 Day 1 steady state, 3125 mg bid, mean, n=6
smiles,measurement,setting,value
"Cc1c(O)cccc1C(=O)N[C@@H](CSc1ccccc1)[C@H](O)CN1C[C@H]2CCCC[C@H]2C[C@H]1C(=O)NC(C)(C)C [nelfinavir, Nelfinavir]",MTD relative to FDA-approved dose for HIV (fold/times),[1]; 3125 mg bid vs doses typically used in HIV patients,2.5
same,onset of nelfinavir-induced neutropenia,"[1]; human, in vivo",≤ 3 days
same,recovery of neutropenia after discontinuation of drug,"[1]; human, in vivo",≤ 3 days
same,"ALT increase, treatment-related AE in cycle 1","[1]; human, in vivo, 21 days",5 (20.8) N (%)
same,"Abdominal pain, treatment-related AE in cycle 1","[1]; human, in vivo, 21 days",1 (4.2) N (%)
same,"Anemia, treatment-related AE in cycle 1","[1]; human, in vivo, 21 days",10 (41.7) N (%)
same,"Anorexia, treatment-related AE in cycle 1","[1]; human, in vivo, 21 days",1 (4.2) N (%)
same,"Belching, treatment-related AE in cycle 1","[1]; human, in vivo, 21 days",1 (4.2) N (%)
same,"Bloating/, treatment-related AE in cycle 1","[1]; human, in vivo, 21 days",3 (12.5) N (%)
same,"Cholesterol increase, treatment-related AE in cycle 1","[1]; human, in vivo, 21 days",3 (12.5) N (%)
same,"Dehydration, treatment-related AE in cycle 1","[1]; human, in vivo, 21 days",2 (8.3) N (%)
same,"Depression, treatment-related AE in cycle 1","[1]; human, in vivo, 21 days",1 (4.2) N (%)
same,"Diarrhea, treatment-related AE in cycle 1","[1]; human, in vivo, 21 days",12 (50.0) N (%)
same,"Fatigue, treatment-related AE in cycle 1","[1]; human, in vivo, 21 days",5 (20.8) N (%)
same,"Flatulence, treatment-related AE in cycle 1","[1]; human, in vivo, 21 days",1 (4.2) N (%)
same,"Heartburn, treatment-related AE in cycle 1","[1]; human, in vivo, 21 days",1 (4.2) N (%)
same,"Hyperglycemia, treatment-related AE in cycle 1","[1]; human, in vivo, 21 days",4 (16.7) N (%)
same,"Hyperkalemia, treatment-related AE in cycle 1","[1]; human, in vivo, 21 days",3 (12.5) N (%)
same,"Hypoalbuminemia, treatment-related AE in cycle 1","[1]; human, in vivo, 21 days",5 (20.8) N (%)
same,"Hypokalemia, treatment-related AE in cycle 1","[1]; human, in vivo, 21 days",1 (4.2) N (%)
same,"Hyponatremia, treatment-related AE in cycle 1","[1]; human, in vivo, 21 days",2 (8.3) N (%)
same,"Hypophosphatemia, treatment-related AE in cycle 1","[1]; human, in vivo, 21 days",1 (4.2) N (%)
same,"Hypothyroid, treatment-related AE in cycle 1","[1]; human, in vivo, 21 days",1 (4.2) N (%)
same,"Insomnia, treatment-related AE in cycle 1","[1]; human, in vivo, 21 days",1 (4.2) N (%)
same,"Leukopenia, treatment-related AE in cycle 1","[1]; human, in vivo, 21 days",4 (16.7) N (%)
same,"Lymphopenia, treatment-related AE in cycle 1","[1]; human, in vivo, 21 days",10 (41.7) N (%)
same,"Nausea, treatment-related AE in cycle 1","[1]; human, in vivo, 21 days",2 (8.3) N (%)
same,"Neutropenia, treatment-related AE in cycle 1","[1]; human, in vivo, 21 days",5 (20.8) N (%)
same,"Palpitations, treatment-related AE in cycle 1","[1]; human, in vivo, 21 days",1 (4.2) N (%)
same,"Thrombocytopenia, treatment-related AE in cycle 1","[1]; human, in vivo, 21 days",2 (8.3) N (%)
same,"anemia, treatment-related AE in cycle 1","[1]; human, in vivo, 21 days",41.7%
same,"diarrhea, treatment-related AE in cycle 1","[1]; human, in vivo, 21 days",50%
same,"fatigue, treatment-related AE in cycle 1","[1]; human, in vivo, 21 days",20.8%
same,"hypoalbuminemia, treatment-related AE in cycle 1","[1]; human, in vivo, 21 days",20.8%
same,"lymphopenia, treatment-related AE in cycle 1","[1]; human, in vivo, 21 days",41.7%
same,dose limiting toxicity (DLT),"[1]; human, in vivo, po",grade 4 neutropenia
same,cumulative toxicities,[1]; in vivo,No cumulative toxicities were observed
same,maximum tolerated dose (MTD),"[1]; oral, twice daily, 21-day cycles, advanced solid tumors",3125 mg
same,CL_F,"[2]; Cycle 1 Day 1, first oral dose 3125 mg, mean, n=10","49,020 mL/h"
same,CL_F,[2]; [3],"59,826 mL/h"
same,Evening Trough,[2]; [3],2883 ng/mL
same,Morning Trough,[2]; [3],4597 ng/mL
same,doses above which PK showed potential non-linearity,"[2]; human, in vivo",1875 to 2500 mg
same,AUC(0-inf),"[2]; human, in vivo, po, 1250 mg",24500 ng·h/mL
same,AUC(0-t),"[2]; human, in vivo, po, 1250 mg",16600 ng·h/mL
same,CL_F,"[2]; human, in vivo, po, 1250 mg","52,714 mL/h"
same,Cmax,"[2]; human, in vivo, po, 1250 mg",2390 ng/mL
same,Tmax,"[2]; human, in vivo, po, 1250 mg",3.7 h
same,half-life,"[2]; human, in vivo, po, 1250 mg",6.6 h
same,AUC(0-inf),"[2]; human, in vivo, po, 1875 mg",189000 ng·h/mL
same,AUC(0-t),"[2]; human, in vivo, po, 1875 mg",73900 ng·h/mL
same,CL_F,"[2]; human, in vivo, po, 1875 mg","21,034 mL/h"
same,Cmax,"[2]; human, in vivo, po, 1875 mg",10400 ng/mL
same,Tmax,"[2]; human, in vivo, po, 1875 mg",3.8 h
same,half-life,"[2]; human, in vivo, po, 1875 mg",11.9 h
same,AUC(0-inf),"[2]; human, in vivo, po, 2500 mg",79400 ng·h/mL
same,AUC(0-t),"[2]; human, in vivo, po, 2500 mg",61000 ng·h/mL
same,CL_F,"[2]; human, in vivo, po, 2500 mg","55,342 mL/h"
same,Tmax,"[2]; human, in vivo, po, 2500 mg",6 h
same,half-life,"[2]; human, in vivo, po, 2500 mg",4.5 h
same,AUC(0-inf),"[2]; human, in vivo, po, 3750 mg",131000 ng·h/mL
same,AUC(0-t),"[2]; human, in vivo, po, 3750 mg",61500 ng·h/mL
same,CL_F,"[2]; human, in vivo, po, 3750 mg","52,114 mL/h"
same,Cmax,"[2]; human, in vivo, po, 3750 mg",7920 ng/mL
same,Tmax,"[2]; human, in vivo, po, 3750 mg",2.7 h
same,half-life,"[2]; human, in vivo, po, 3750 mg",9.2 h
same,Cmax,"[2]; human, in vivo, Cycle 1 Day 1, first oral dose 2500 mg, mean, n=3, read-out: Cmax",9740 ng/mL
same,AUC(0-inf),"[2]; human, in vivo, Cycle 1 Day 1, first oral dose 3125 mg, mean, n=10, read-out: AUCinf",140000 ng·h/mL
same,half-life,"[2]; human, in vivo, Cycle 1 Day 1, first oral dose 3125 mg, mean, n=10, read-out: T1/2 (converted)",9.2 h
same,AUC(0-t),"[2]; human, in vivo, Cycle 1 Day 1, first oral dose 3125 mg, mean, n=13, read-out: AUClast",56900 ng·h/mL
same,Cmax,"[2]; human, in vivo, Cycle 1 Day 1, first oral dose 3125 mg, mean, n=13, read-out: Cmax",7640 ng/mL
same,Tmax,"[2]; human, in vivo, Cycle 1 Day 1, first oral dose 3125 mg, mean, n=13, read-out: Tmax",4.8 h
same,Cmax,"[2]; human, in vivo, Cycle 2 Day 1 steady state, 3125 mg bid, mean, n=7, read-out: Cmax",9550 ng/mL
same,Tmax,"[2]; human, in vivo, Cycle 2 Day 1 steady state, 3125 mg bid, mean, n=7, read-out: Tmax",3.3 h
same,AUC(0-t),"[2]; human, in vivo, Cycle 2 Day 1 steady state, 3125 mg bid, mean, read-out: AUClast",60000 ng·h/mL
same,change of overall exposure or maximal plasma concentration with dose,[2]; in vivo,No increase
same,dose linearity of first dose pharmacokinetics,"[2]; in vivo, po",Non-linear pharmacokinetics
same,subject PBMCs showing a decrease in P-AKT S473,"P-AKT S473; DL4 (3125 mg bid), after 7 or 42 days",45%
same,effect on AKT in peripheral blood mononuclear cells,P-AKT S473; in vivo,inhibited AKT
same,subject PBMCs showing an increase in P-EIF2 alpha S51,P-EIF2 alpha S51,45%
same,samples showing an increase in ATF3 and/or CHOP,ATF3 and/or CHOP,27%
same,MTD in liposarcoma patients,liposarcoma; Phase I trial,MTD was not reached
same,dose above which PK non-linearity was found,liposarcoma; liposarcoma patients,above 3000 mg bid
same,dose at which auto-induction was noted (highest dose evaluated),liposarcoma; liposarcoma patients,4125 mg BID
